The values below come from patent US20240316130A1 (priority 2023, published 2024).

This test relates to ASS1^KO B16F10 cells. Type of test: cell-based, murine.

“Also recorded” adds a separate entry of the source.

As for `NC(=NCCCC(N)C(=O)O)NC(CC(=O)O)C(=O)O` (centres unmarked) [argininosuccinate], the “rescue of MYXV replication by supplement” value was “support myxoma virus replication; also recorded: remained rescuable”.

Consider `NC(=O)NCCC[C@H](N)C(=O)O` [citrulline, L-Citrulline], for which the “rescue of MYXV replication by supplement” value is recorded as “not able to divide or support myxoma virus replication; also recorded: could no longer be rescued”.
